Test [1] relates to blood-glucose concentration. In words: Threshold dose of blood-glucose-lowering activity in fasting guinea pigs (i.p.). The test is classed as in vivo, guinea pig. The following applies: Cavia porcellus, ip. As for the experimental part:
1. Test procedure for determination of threshold dose
Fasting guinea pigs were used as experimental models to determine the threshold dose of the blood-glucose-lowering activity of the substances to be investigated. Food was withheld from the animals used in the investigations for 16 hours prior to the start of the tests. The animals remained without food for the entire testing period but had free access to drinking water.
The substances were administered intraperitoneally as a solution of the potassium salt at pH 7.4.
A parallel control group was given an 0.9% NaCl solution.
The drawing of blood for determination of the glucose concentrations was effected immediately prior to administration of the substances and at one-hour intervals up to the fourth hour after the administration of the substances. To this end, an ear vein was carefully punctured with a No. 18 cannula, and the drops of blood issuing were picked up with a 10 μl capillary.
The blood-glucose concentration was determined in the hemolyzate by the specific hexokinase method. To this end, the 10 μl blood sample was pipetted into a stabilizer solution containing digitonin as hemolysis accelerator and maleinimide as […]. Following this, an aliquot was taken from the hemolyzate so obtained and determined by the hexokinase method on an LKB 8600 (made by LKB, Bromma, Sweden).
The dose which with the specified number of test animals per dose group (N=4) was just large enough to produce a significant lowering of fasting glycemia (p>0.05) was adopted as threshold dose.

In test [2] the test system is glucose resorption. In words: Resorption-inhibiting activity: oral glucose loading in fasting guinea pigs. The test is classed as in vivo, guinea pig. As to conditions: Cavia porcellus, ip, 1 g glucose p.o., AUC difference vs control; for inhibition in vivo at 20 mg/kg: dose 20 mg/kg i.p.; for inhibition in vivo at 40 mg/kg: dose 40 mg/kg i.p.; for inhibition in vivo at 25 mg/kg: dose 25 mg/kg i.p. The method, then:
2. Test procedure for determination of resorption-inhibiting activity
To determine the effect on glucose resorption, oral glucose loading was effected. To this end, the substance to be tested was administered intraperitoneally as potassium salt, as described, to a group of ten fasting guinea pigs. At the same time, 1 g glucose was orally administered to the animals as a 20% solution by means of an esophageal bougie.
After a preliminary value had been established, blood was taken from the animals at close intervals (20 min. to 200 min.) for determination of the glucose concentrations, as described.
A parallel control group was also given 1 g glucose p. o., and intraperitoneally a corresponding amount of 0.9% NaCl solution.
The blood-glucose concentration was determined in the hemolyzate by the hexokinase method, as described.
With regard to glucose resorption, the area under the concentration/time curve, calculated by means of the empirical trapeze formula, served as quantity to be measured. The difference in the area between the control and test groups, expressed in percent, was used as a measure for the inhibition of glucose resorption.

Where [3] appears, read: potassium salt pH 7.4, N=4 per dose group, smallest dose significantly lowering fasting glycemia.
[4] abbreviates: potassium salt pH 7.4, N=4, remark printed: weak.

Minimal effective dose and inhibition in vivo data for 19 compounds are collected here from patent US4425360A, “Pharmacologically active novel O-substituted pyruvic acid oximes” (Boehringer Mannheim GmbH, priority 1980, dated 1984).

Each structure is given as a SMILES string.

For orientation: minimal effective dose means the smallest amount tested that counted as effective. A word on the inhibition in vivo: it is the share of the control response that was lost under treatment. With `CC(=NOCCCc1ccccc1)C(=O)[O-].[Na+]` [Example 1b, sodium 2-(3-phenylpropyloxyimino)-propionate], the minimal effective dose in test [1] (setting [3]) is 25 to 50 mg/kg. In test [2], this compound returned an inhibition in vivo at 20 mg/kg of 39%.

As for `CC(=NOCCOc1ccccc1)C(=O)[O-].[Na+]` [Example 1c, sodium 2-(2-phenoxyethyloxyimino)-propionate], in test [1] (setting [4]), the minimal effective dose is 50 mg/kg. In addition, at 40 mg/kg the inhibition in vivo in test [2] was 25%.

Regarding `CC(=NOCCc1ccccc1)C(=O)O` [Example 2a, 2-(2-phenylethyloxyimino)-propionic acid], the minimal effective dose in test [1] (setting [3]) worked out at 75 mg/kg. Moreover, at 40 mg/kg the inhibition in vivo in test [2] was 33%.

As for `CC(=NOCC#Cc1ccccc1)C(=O)O` [Example 2d, 2-(3-phenyl-2-propynyloxyimino)-propionic acid], the minimal effective dose in test [1] (potassium salt pH 7.4, N=4, remark printed: wk. indiv. animals) was 25 mg/kg. Also, testing at 40 mg/kg in test [2] gave an inhibition in vivo of 65%.

Take `CC(=CCON=C(C)C(=O)O)c1ccccc1` [Example 3, 2-(γ-Methylcinnamyloxyimino)-propionic acid]: the minimal effective dose in test [1] (setting [3]) turned out to be 50 mg/kg. Besides, in test [2] (dose 30 mg/kg i.p.), at 30 mg/kg the inhibition in vivo was 0%.

Regarding `CC(=NOCC=Cc1ccccc1)C(=O)O` [Example 3a, 2-cinnamyloxyiminopropionic acid], the minimal effective dose in test [1] (setting [3]) turned out to be 25 mg/kg. In test [2] (dose 10 mg/kg i.p.), this compound gave an inhibition in vivo at 10 mg/kg of 33%.

For the compound `CC(=Cc1ccccc1)CON=C(C)C(=O)O` [Example 3b, 2-(β-methylcinnamyloxyimino)-propionic acid], in test [1] (setting [3]), the minimal effective dose was 50 mg/kg. In addition, the inhibition in vivo at 40 mg/kg in test [2] worked out at 40%.

Take `CC(=NOCC=Cc1cccc(Cl)c1)C(=O)O` [Example 4, 2-(3-Chlorocinnamyloxyimino)-propionic acid]: in test [1] (setting [3]), the minimal effective dose was found to be 25 mg/kg. For the same compound, at 20 mg/kg the inhibition in vivo in test [2] was 55%.

For `CC(=NOCC=Cc1ccccc1Cl)C(=O)O` [Example 4a, 2-(2-chlorocinnamyloxyimino)-propionic acid], the minimal effective dose in test [1] (setting [4]) was 50 mg/kg. The same compound returned an inhibition in vivo at 40 mg/kg in test [2] of 41%.

On to `CC(=NOCC=Cc1ccc(Cl)cc1)C(=O)O` [Example 4b, 2-(4-chlorocinnamyloxyimino)-propionic acid], for which the minimal effective dose in test [1] (potassium salt pH 7.4, N=4, remark printed: flat D-W curve) was 25 to 50 mg/kg. Besides, the inhibition in vivo at 20 mg/kg in test [2] was determined as 10%.

As for `C=CCON=C(C)C(=O)O` [Example 4c, 2-(allyloxyimino)-propionic acid], the minimal effective dose in test [1] (setting [3]) is > 50 mg/kg. Further, the inhibition in vivo at 40 mg/kg in test [2] was 37%.

On to `CC(=NOCC=Cc1ccc(F)cc1)C(=O)O` [Example 5, 2-(4-Fluorocinnamyloxyimino)-propionic acid], for which, in test [1] (setting [3]), the minimal effective dose worked out at 50 mg/kg. At 40 mg/kg the inhibition in vivo in test [2] was 3%.

Regarding `COc1cccc(C=CCON=C(C)C(=O)O)c1` [Example 5D, 2-(3-methoxycinnamyloxyimino)-propionic acid], in test [1] (setting [3]), the minimal effective dose came out at 25 mg/kg. Moreover, in test [2], at 25 mg/kg the inhibition in vivo was 36%.

For the compound `CC(=NOCC=Cc1cccc(C(F)(F)F)c1)C(=O)O` [Example 5a, 2-(3-trifluoromethylcinnamyloxyimino)-propionic acid], the minimal effective dose in test [1] (setting [3]) was 50 mg/kg. Moreover, the inhibition in vivo at 40 mg/kg in test [2] is 34%.

As for `CC(=NOCC=Cc1cc(Cl)ccc1C)C(=O)O` [Example 5f, 2-(5-chloro-2-methylcinnamyloxyimino)-propionic acid], the minimal effective dose in test [1] (setting [3]) came out at 50 mg/kg. The compound also had an inhibition in vivo at 40 mg/kg in test [2] of 33%.

For `CC(=NOCC=Cc1ccccc1)C(=O)N1CCN(C)CC1` [Example 8, 4-[2-(Cinnamyloxyimino)-propionyl]-1-methylpiperazine], in test [1] (setting [3]), the minimal effective dose was > 50 mg/kg. In test [2], 40 mg/kg produced 44% inhibition in vivo.

As to `O=C(O)C(CF)=NOCC=Cc1ccccc1` [Example 9, 2-(Cinnamyloxyimino)-3-fluoropropionic acid], the minimal effective dose in test [1] (setting [3]) was 25 mg/kg. Further, the inhibition in vivo at 20 mg/kg in test [2] turned out to be 26%.

Take `O=C(O)C=NOCC=Cc1ccccc1` [Example 10, Cinnamyloxyiminoacetic acid]: the minimal effective dose in test [1] (setting [3]) is > 50 mg/kg. In test [2], the inhibition in vivo at 25 mg/kg amounted to 69%.

With `CCC(=NOCC=Cc1ccccc1)C(=O)O` [Example 10a, 2-cinnamyloxyiminobutyric acid], the minimal effective dose in test [1] (setting [3]) came to 25 mg/kg. In test [2], the inhibition in vivo at 20 mg/kg is 0%.
